From doi:10.1101/2024.12.12.628185v1 (biorxiv, 2024) come the findings set out here.

This assay deals with T1, ERα (purified full-length human ERα) (Homo sapiens, UniProt P03372).
T1 sequence (P03372 1-595): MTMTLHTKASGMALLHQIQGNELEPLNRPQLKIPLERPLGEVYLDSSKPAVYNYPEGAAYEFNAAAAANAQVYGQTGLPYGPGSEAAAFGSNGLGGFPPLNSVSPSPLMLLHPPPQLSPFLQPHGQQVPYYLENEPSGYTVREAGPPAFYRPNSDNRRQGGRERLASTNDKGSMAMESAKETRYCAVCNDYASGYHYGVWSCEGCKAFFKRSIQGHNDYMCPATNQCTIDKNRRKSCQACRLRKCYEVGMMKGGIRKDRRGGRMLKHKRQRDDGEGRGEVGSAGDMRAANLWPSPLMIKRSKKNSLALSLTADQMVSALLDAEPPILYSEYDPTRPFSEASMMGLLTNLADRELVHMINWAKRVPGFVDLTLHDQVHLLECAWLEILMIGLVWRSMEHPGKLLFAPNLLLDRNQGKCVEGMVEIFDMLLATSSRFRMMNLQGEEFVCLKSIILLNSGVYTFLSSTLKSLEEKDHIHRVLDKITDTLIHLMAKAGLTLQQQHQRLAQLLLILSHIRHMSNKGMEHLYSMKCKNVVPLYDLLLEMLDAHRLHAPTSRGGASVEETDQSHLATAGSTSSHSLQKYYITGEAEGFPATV
As to the kind of experiment: biochemical. Format: binding.

What is called IC50 is the concentration that gives 50% inhibition. Low values mean greater potency, high ones weaker potency.

The structures appear in SMILES notation.

Turning to `CCCCC(CC)COC(=O)c1ccccc1C(=O)OCC(CC)CCCC` (stereo not shown) [DEHP], the IC50 was ~500 µM.
